Data taken from article PMC7187762 (ACS chemical biology, 2018).
No end group written: not given here.

Experiments:
[1] = target: proteinase K (Parengyodontium album, UniProt P06873); test: Resistance to proteinase K digestion; settings: isolated enzyme proteinase k
[2] = Temperature-dependent circular dichroism; assay type: physicochemical; settings: CD; at 95°C

Chain of proteinase K (P06873 106-384, species assumed): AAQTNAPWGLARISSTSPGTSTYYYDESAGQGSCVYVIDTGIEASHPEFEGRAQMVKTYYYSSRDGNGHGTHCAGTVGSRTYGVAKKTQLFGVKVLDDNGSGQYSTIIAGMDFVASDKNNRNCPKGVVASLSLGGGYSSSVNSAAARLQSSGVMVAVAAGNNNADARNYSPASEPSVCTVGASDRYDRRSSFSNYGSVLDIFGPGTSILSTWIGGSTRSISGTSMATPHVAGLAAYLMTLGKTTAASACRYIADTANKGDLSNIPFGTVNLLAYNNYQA

Substance | half-life [1] | decrease in spectral intensity at 215 nm [2]
Ac-TWNPATGKWT-NH2 [HP7Δ] | 0.6 min | 
NS1 HBS: HBS-stabilized β-hairpin derived from the Ras-binding NS1 monobody (GGWKGQVYYVG; HBS hydrogen bond surrogate constraint) |  | 25%
KTWNPATGKWTE [HP7] | 2 min | 
